Assay results: PubChem BioAssay AID1918947 (Molecular Pharmacology Branch, DTP, NCI, 2023)
“And” between values parts separate entries of the source, which are not always exact repeats. Equal values may be shown once.

System: A498 complex spheroid viability
Test: Anticancer human tumor A498 cell line growth inhibition;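 further: spheroids exposed to agents for seven days before readout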;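 on viability, T/C: 100% = DMSO vehicle-treated spheroids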
Settings: for viability, T/C: stronger effect = lower value
In short: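 Complex spheroids of tumor cells with HUVEC and human MSCs, exposed to iadademstat combined with other agents. Each agent tested in half-log steps from near clinical Cmax (else 10 microM top), DMSO ≤0.25%.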

[1] = curve of first compound, second compound 0.1 µM
[2] = curve of first compound, second compound 0.316 µM
[3] = curve of first compound, second compound 1 µM
[4] = curve of first compound, second compound 3.16 µM
[5] = curve of first compound, second compound 10 µM
[6] = second compound 0.1 µM, first compound 0.00316 µM
[7] = second compound 0.1 µM, first compound 0.01 µM
[8] = second compound 0.1 µM, first compound 0.0316 µM
[9] = second compound 0.1 µM, first compound 0.1 µM
[10] = second compound 0.316 µM, first compound 0.00316 µM
[11] = second compound 0.316 µM, first compound 0.01 µM
[12] = second compound 0.316 µM, first compound 0.0316 µM
[13] = second compound 0.316 µM, first compound 0.1 µM
[14] = second compound 1 µM, first compound 0.00316 µM
[15] = second compound 1 µM, first compound 0.01 µM
[16] = second compound 1 µM, first compound 0.0316 µM
[17] = second compound 1 µM, first compound 0.1 µM
[18] = second compound 3.16 µM, first compound 0.00316 µM
[19] = second compound 3.16 µM, first compound 0.01 µM
[20] = second compound 3.16 µM, first compound 0.0316 µM
[21] = second compound 3.16 µM, first compound 0.1 µM
[22] = second compound 10 µM, first compound 0.00316 µM
[23] = second compound 10 µM, first compound 0.01 µM
[24] = second compound 10 µM, first compound 0.0316 µM
[25] = second compound 10 µM, first compound 0.1 µM
[26] = second compound 0.1 µM, first compound 0.000316 µM
[27] = second compound 0.1 µM, first compound 0.001 µM
[28] = second compound 0.316 µM, first compound 0.000316 µM
[29] = second compound 0.316 µM, first compound 0.001 µM
[30] = second compound 1 µM, first compound 0.000316 µM
[31] = second compound 1 µM, first compound 0.001 µM
[32] = second compound 3.16 µM, first compound 0.000316 µM
[33] = second compound 3.16 µM, first compound 0.001 µM
[34] = second compound 10 µM, first compound 0.000316 µM
[35] = second compound 10 µM, first compound 0.001 µM

Compound: CC1COCCN1c1cc(-c2ccnn2C)c2ccnc(-c3ccn[nH]3)c2n1 (centres undefined) + NC1CC1c1ccc(-c2cccc(O)c2)cc1
- IC50 [1]: 30.9 nM
- IC50 [2]: 29.8 nM
- IC50 [3]: 36.8 nM
- IC50 [4]: 28.4 nM
- IC50 [5]: 31.5 nM
- viability, T/C [6]: 104%
- viability, T/C [7]: 88.1%
- viability, T/C [8]: 48.2%
- viability, T/C [9]: 23.6%
- viability, T/C (second compound 0.1 µM, first compound 0.316 µM): 16.9%
- viability, T/C (second compound 0.1 µM, first compound 1 µM): 11.8%
- viability, T/C [10]: 108%
- viability, T/C [11]: 94%
- viability, T/C [12]: 45.8%
- viability, T/C [13]: 25.3%
- viability, T/C (second compound 0.316 µM, first compound 0.316 µM): 18.1%
- viability, T/C (second compound 0.316 µM, first compound 1 µM): 13%
- viability, T/C [14]: 105%
- viability, T/C [15]: 87%
- viability, T/C [16]: 55.5%
- viability, T/C [17]: 22.8%
- viability, T/C (second compound 1 µM, first compound 0.316 µM): 17.7%
- viability, T/C (second compound 1 µM, first compound 1 µM): 12.3%
- viability, T/C [18]: 109%
- viability, T/C [19]: 85.5%
- viability, T/C [20]: 45.8%
- viability, T/C [21]: 23.3%
- viability, T/C (second compound 3.16 µM, first compound 0.316 µM): 15.6%
- viability, T/C (second compound 3.16 µM, first compound 1 µM): 12.9%
- viability, T/C [22]: 91.9%
- viability, T/C [23]: 80.3%
- viability, T/C [24]: 49%
- viability, T/C [25]: 24.8%
- viability, T/C (second compound 10 µM, first compound 0.316 µM): 16.3%
- viability, T/C (second compound 10 µM, first compound 1 µM): 11.4%

Compound: Nc1ccn(C2OC(CO)C(O)C2(F)F)c(=O)n1 (centres undefined)
- viability, T/C (compound 0.000949 µM): 22.8% and 20%
- viability, T/C (compound 0.003 µM): 29.2% and 27.8%
- viability, T/C (compound 0.00949 µM): 43.3% and 107%
- viability, T/C (compound 0.03 µM): 36.6% and 35.1%
- viability, T/C (compound 0.0949 µM): 37% and 34%
- viability, T/C (compound 0.3 µM): 27.9% and 29.2%
- IC50 (curve of compound): < 0.949 nM

Compound: Nc1ccn(C2OC(CO)C(O)C2(F)F)c(=O)n1 (centres undefined) + NC1CC1c1ccc(-c2cccc(O)c2)cc1
- IC50 [1]: < 0.949 nM
- IC50 [2]: < 0.949 nM
- IC50 [3]: < 0.949 nM
- IC50 [4]: < 0.949 nM
- IC50 [5]: < 0.949 nM
- viability, T/C (second compound 0.1 µM, first compound 0.000949 µM): 20.6%
- viability, T/C (second compound 0.1 µM, first compound 0.003 µM): 28.4%
- viability, T/C (second compound 0.1 µM, first compound 0.00949 µM): 98.4%
- viability, T/C (second compound 0.1 µM, first compound 0.03 µM): 36.4%
- viability, T/C (second compound 0.1 µM, first compound 0.0949 µM): 35.8%
- viability, T/C (second compound 0.1 µM, first compound 0.3 µM): 31.5%
- viability, T/C (second compound 0.316 µM, first compound 0.000949 µM): 22.6%
- viability, T/C (second compound 0.316 µM, first compound 0.003 µM): 28.6%
- viability, T/C (second compound 0.316 µM, first compound 0.00949 µM): 112%
- viability, T/C (second compound 0.316 µM, first compound 0.03 µM): 33.9%
- viability, T/C (second compound 0.316 µM, first compound 0.0949 µM): 35.3%
- viability, T/C (second compound 0.316 µM, first compound 0.3 µM): 32.3%
- viability, T/C (second compound 1 µM, first compound 0.000949 µM): 22.5%
- viability, T/C (second compound 1 µM, first compound 0.003 µM): 26.8%
- viability, T/C (second compound 1 µM, first compound 0.00949 µM): 105%
- viability, T/C (second compound 1 µM, first compound 0.03 µM): 35.5%
- viability, T/C (second compound 1 µM, first compound 0.0949 µM): 29.3%
- viability, T/C (second compound 1 µM, first compound 0.3 µM): 30.6%
- viability, T/C (second compound 3.16 µM, first compound 0.000949 µM): 22.6%
- viability, T/C (second compound 3.16 µM, first compound 0.003 µM): 28.3%
- viability, T/C (second compound 3.16 µM, first compound 0.00949 µM): 94.6%
- viability, T/C (second compound 3.16 µM, first compound 0.03 µM): 36.1%
- viability, T/C (second compound 3.16 µM, first compound 0.0949 µM): 30.3%
- viability, T/C (second compound 3.16 µM, first compound 0.3 µM): 28.1%
- viability, T/C (second compound 10 µM, first compound 0.000949 µM): 23.5%
- viability, T/C (second compound 10 µM, first compound 0.003 µM): 28.2%
- viability, T/C (second compound 10 µM, first compound 0.00949 µM): 93.5%
- viability, T/C (second compound 10 µM, first compound 0.03 µM): 40.7%
- viability, T/C (second compound 10 µM, first compound 0.0949 µM): 32.9%
- viability, T/C (second compound 10 µM, first compound 0.3 µM): 29.4%

Compound: Cn1ncnc1C1c2n[nH]c(=O)c3cc(F)cc(c23)NC1c1ccc(F)cc1 (centres undefined) + NC1CC1c1ccc(-c2cccc(O)c2)cc1
- IC50 [1]: > 100 nM
- IC50 [2]: > 100 nM
- IC50 [3]: > 100 nM
- IC50 [4]: > 100 nM
- IC50 [5]: > 100 nM
- viability, T/C [26]: 94.6%
- viability, T/C [27]: 97.7%
- viability, T/C [6]: 104%
- viability, T/C [7]: 94.9%
- viability, T/C [8]: 96.2%
- viability, T/C [9]: 94.2%
- viability, T/C [28]: 103%
- viability, T/C [29]: 111%
- viability, T/C [10]: 104%
- viability, T/C [11]: 92.1%
- viability, T/C [12]: 100%
- viability, T/C [13]: 93.3%
- viability, T/C [30]: 89.3%
- viability, T/C [31]: 93.3%
- viability, T/C [14]: 96.4%
- viability, T/C [15]: 84.6%
- viability, T/C [16]: 89.1%
- viability, T/C [17]: 87.8%
- viability, T/C [32]: 87%
- viability, T/C [33]: 89.8%
- viability, T/C [18]: 90.2%
- viability, T/C [19]: 89%
- viability, T/C [20]: 91.9%
- viability, T/C [21]: 77.8%
- viability, T/C [34]: 80.8%
- viability, T/C [35]: 86.6%
- viability, T/C [22]: 91.3%
- viability, T/C [23]: 87.3%
- viability, T/C [24]: 78.6%
- viability, T/C [25]: 78.4%

Compound: CC[C@@]1(O)C(=O)OCc2c1cc1n(c2=O)Cc2cc3c(CN(C)C)c(O)ccc3nc2-1
- viability, T/C (compound 0.000316 µM): 106% and 95.2%
- viability, T/C (compound 0.001 µM): 103% and 95.8%
- viability, T/C (compound 0.00316 µM): 86.4% and 82.6%
- viability, T/C (compound 0.01 µM): 84.5% and 79.2%
- viability, T/C (compound 0.0316 µM): 62.7% and 56.4%
- viability, T/C (compound 0.1 µM): 33.7% and 32.4%
- IC50 (curve of compound): 52.5 nM and 44.6 nM

Compound: CC[C@@]1(O)C(=O)OCc2c1cc1n(c2=O)Cc2cc3c(CN(C)C)c(O)ccc3nc2-1 + NC1CC1c1ccc(-c2cccc(O)c2)cc1
- IC50 [1]: 42.5 nM
- IC50 [2]: 43.7 nM
- IC50 [3]: 37.8 nM
- IC50 [4]: 30.2 nM
- IC50 [5]: 26.1 nM
- viability, T/C [26]: 105%
- viability, T/C [27]: 106%
- viability, T/C [6]: 79.1%
- viability, T/C [7]: 76.4%
- viability, T/C [8]: 60.6%
- viability, T/C [9]: 29.8%
- viability, T/C [28]: 110%
- viability, T/C [29]: 103%
- viability, T/C [10]: 82.2%
- viability, T/C [11]: 73.1%
- viability, T/C [12]: 59.6%
- viability, T/C [13]: 33.8%
- viability, T/C [30]: 102%
- viability, T/C [31]: 103%
- viability, T/C [14]: 86.5%
- viability, T/C [15]: 69.4%
- viability, T/C [16]: 55.8%
- viability, T/C [17]: 32.9%
- viability, T/C [32]: 104%
- viability, T/C [33]: 95.4%
- viability, T/C [18]: 74.6%
- viability, T/C [19]: 60.5%
- viability, T/C [20]: 58.8%
- viability, T/C [21]: 29.5%
- viability, T/C [34]: 103%
- viability, T/C [35]: 92.4%
- viability, T/C [22]: 75.8%
- viability, T/C [23]: 65.5%
- viability, T/C [24]: 49%
- viability, T/C [25]: 27.7%
